Source: patent publication US20060154907A1, “Method of treating hormonal deficiencies in women undergoing estrogen replacement therapy” (Barr Laboratories, Inc., priority 2000, published 2006)
Several values for one entry are separate records, joined by “and”; a condition that tells them apart may be missing. Equal values may be shown once.

Experiments:
uterine horns in mice [1] = experiment: Weight of uterine horns in ovariectomized mice: estrogen, testosterone or combination; conditions: daily injections 7 days, 10 μg/Kg of each hormone; for D Hs/BW (dry horns Rt + Lt / body weight) / Lt H D (left horn dry weight) / Rt H D (right horn dry weight): dried 90° C. 24 hrs
Source text: Applicants performed a set of experiments to determine the effects of estrogen and testosterone on weight of uterine horns in mice.
(§1) The protocol employed in the experiment included taking ovariectomized female mice ordered from Charles River Laboratories, of which the females were 32-52 days old, after ovariectomy, and separating them into four groups. The first group of mice received daily injections of testosterone for 7 days. A second group of mice received daily injections of estradiol for 7 days. A third group of mice received daily injections of testosterone plus estradiol for 7 days. Finally, the mice in the fourth group received daily injections of a control vehicle for 7 days. All of the injections were given 1M at 10 AM, alternatively to the right and left buttock. The daily amount injected of the estradiol and/or testosterone was 10 μg/Kg of each hormone, delivered at a dose of 0.25 ml.
(§2) The injections were produced based upon the following protocols. The estradiol selected was the oil-dissolved 17β-estradiol from Sigma (17β-estradiol E-8875. The estradiol was prepared by dissolving 200 μg of the hormone in 0.25 ml ethanol for a ×1000 stock (0.8 mg/1 ml=×1000 stock). Next, 10 μl aliquots were dispensed into nine 15 ml conical plastic tubes and frozen. For each injection, one of the tubes was thawed, 9.99 ml saline was added and then mixed to obtain 10 ml of the solution at a level of 0.8 μg/1 ml. Then, 0.25 ml were injected into each animal.
The testosterone selected was testosterone enanthane from Bristol Myers Squib (Delatestryl™). The testosterone was prepared by aspirating […] from a bottle containing 200 mg/1 ml testosterone via a tuberculin syringe of 1.0 ml. Next, 24.9 ml of ethanol was poured into a 50 ml conical plastic tube. Then 0.1 ml of the testosterone was dissolved in the syringe with the 24.9 ml of ethanol. This produced a ×1000 stock of 0.8 mg/1 ml. Similar to the estradiol protocol, next, 10 μl aliquots were dispensed into nine 15 ml conical plastic tubes and frozen. For each injection, one of the tubes was thawed, 9.99 ml saline is added and then mixed to obtain 10 ml of the solution at a level of 0.8 μg/1 ml. Then, 0.25 ml were injected into each animal. The injections were based for a 20 gm animal. The dose injected per actual weight of the animal may be adjusted by varying the weight, i.e., may vary from 19 gm to 24 gm (0.238 ml to 0.3 ml).
After the seven days of injections, the mice were euthanized via injection from Lumina. The mice were then weighed. After midline laparotomy, 2 ml to 5 ml does of blood was obtained from the heart. The blood was allowed to clot and was then centrifuged and the resulting serum was collected and stored at −80° C. The uterine horns were then identified, transected from the level of the vagina till the ovary (without the ovary and without the parametrium), weighted (i.e., wet weight of Rt and Lt horn), and placed separately in a piece of silver foil paper, and baked in an oven at 90° C. for 24 hrs to obtain the dry weight of the horns.

uterine horns in mice [2] = experiment: Weight of uterine horns in ovariectomized mice: estrogen, oxandrolone or combination; conditions: second experiment (oxandrolone); for D Hs/BW (dry horns Rt + Lt / body weight) / Lt H D (left horn dry weight) / Rt H D (right horn dry weight): dried 90° C. 24 hrs; for W Hs/BW (wet horns Rt + Lt / body weight) / Lt H W (left horn wet weight) / Rt H W (right horn wet weight): daily injections 7 days
Source text: as §1, §2
A second experiment was performed using the protocols set above. The only change included replacing testosterone with oxandrolone. The oxandrolone was prepared by dissolving a 20 mg powder of the original vial in 1.0 ml of DMSO. 100 μl aliquots were then dispensed into 10 new vials (each containing now 2 mg/vial, or 20 μg/μl) and all vials, except one, were frozen at −20° C. The 9 frozen vials are referred to herein as “Original Stocks”.
Next, one of the Original Stock vials containing 100 μl of 20 μg/μl Oxandrolone was diluted to a 1:5 ratio in DMSO by adding 400 μl DMSO. […] 50 μl aliquots were then dispensed into 10 vials (each containing now 0.4 μg/μl, or 20 μg/50 μl) of which nine were frozen. The frozen vials from this part of the experiment are herein referred to as “Diluted Stocks”.
One Diluted Stock vial was taken and diluted in 24.95 ml saline to get a solution of 20 μg/25 ml oxandrolone, or 0.2 μg/0.25 ml. The 0.5 ml aliquots are then dispensed into 20 vials and frozen. The remaining 15 ml were discarded. On the day of injection, each one of the vials was thawed 0.25 ml were injected into each animal based upon a 20 gm animal. The dose injected may be adjusted per actual weight of the animal (may vary from 19 gm to 24 gm, 0.238 ml to 0.3 ml).
After the last day of injections, the mice were weighed and then euthanized in a CO2 chamber. Blood was obtained from the heart in an amount of 2-5 ml. Time was allotted to let it clot and then it was centrifuged and the serum was collected and stored at −80° C. The abdomen was opened by a longitudinal ventral incision. Then the uterine horns were identified and the right horn was transected from the level of the vagina until the ovary (thus, without the ovary and without the parametrium). This process was repeated for the left horn. Both horns were weighed to determine the wet weight of the horns. Then the horns were placed on silver foil paper and baked in an oven at 90° C. for 24 hrs. Then the dry weight of the horns was taken.

[3] = individual animal, ovariectomized female mice

SMILES | Lt H W (left horn wet weight) (uterine horns in mice [1]; group mean) [mg] | Rt H W (right horn wet weight) (uterine horns in mice [1]; group mean) [mg] | W Hs/BW (wet horns Rt + Lt / body weight) (uterine horns in mice [1]; group mean) [mg/gm] | D Hs/BW (dry horns Rt + Lt / body weight) (uterine horns in mice [1]; group mean) [mg/gm] | Lt H D (left horn dry weight) (uterine horns in mice [1]; group mean) [mg] | Rt H D (right horn dry weight) (uterine horns in mice [1]; group mean) [mg] | D Hs/BW (dry horns Rt + Lt / body weight) (uterine horns in mice [1]; individual animal) | Lt H D (left horn dry weight) (uterine horns in mice [1]; individual animal) | Rt H D (right horn dry weight) (uterine horns in mice [1]; individual animal) | Lt H W (left horn wet weight) (uterine horns in mice [1]; [3]) | Rt H W (right horn wet weight) (uterine horns in mice [1]; [3]) | W Hs/BW (wet horns Rt + Lt / body weight) (uterine horns in mice [1]; [3]) | D Hs/BW (dry horns Rt + Lt / body weight) (uterine horns in mice [2]; group mean) [mg/gm] | W Hs/BW (wet horns Rt + Lt / body weight) (uterine horns in mice [2]; group mean) [mg/gm] | D Hs/BW (dry horns Rt + Lt / body weight) (uterine horns in mice [2]; individual animal) | Lt H D (left horn dry weight) (uterine horns in mice [2]; individual animal) | Rt H D (right horn dry weight) (uterine horns in mice [2]; individual animal) | Lt H W (left horn wet weight) (uterine horns in mice [2]; individual animal) | Rt H W (right horn wet weight) (uterine horns in mice [2]; individual animal) | W Hs/BW (wet horns Rt + Lt / body weight) (uterine horns in mice [2]; individual animal)
C[C@]12CC[C@@H]3c4ccc(O)cc4CC[C@H]3[C@@H]1CC[C@@H]2O [E, 17β-estradiol] | 20.0 | 19.5 | 1.82 | 0.27 | 2.9 | 3.0 | 0.28 mg/gm and 0.21 mg/gm and 0.38 mg/gm and 0.24 mg/gm and 0.22 mg/gm | 2.9 mg and 2.2 mg and 4.2 mg and 2.6 mg and 2.4 mg | 3.3 mg and 2.5 mg and 4.0 mg and 2.4 mg and 2.6 mg | 21.5 mg and 18.0 mg and 24.2 mg and 19.5 mg and 16.7 mg | 20.6 mg and 16.2 mg and 26.6 mg and 17.3 mg and 16.9 mg | 1.92 mg/gm and 1.55 mg/gm and 2.37 mg/gm and 1.79 mg/gm and 1.47 mg/gm | 0.66 | 3.63 | 0.97 mg/gm and 0.60 mg/gm and 0.61 mg/gm and 0.49 mg/gm and 0.63 mg/gm | 12 mg and 4.8 mg and 7.7 mg and 4.6 mg and 5 mg | 9.9 mg and 7.3 mg and 4.7 mg and 6.5 mg and 8.0 mg | 44.9 mg and 29.7 mg and 48.1 mg and 34.4 mg and 32.7 mg | 46.7 mg and 41.2 mg and 30 mg and 35 mg and 44.2 mg | 4.06 mg/gm and 3.52 mg/gm and 3.82 mg/gm and 3.05 mg/gm and 3.70 mg/gm
C[C@]12COC(=O)C[C@@H]1CC[C@@H]1[C@@H]2CC[C@@]2(C)[C@H]1CC[C@]2(C)O [Ox, oxandrolone] |  |  |  |  |  |  |  |  |  |  |  |  | 0.35 | 1.54 | 0.26 mg/gm and 0.20 mg/gm and 0.76 mg/gm and 0.16 mg/gm and 0.37 mg/gm | 2.3 mg and 2.2 mg and 5.5 mg and 1.4 mg and 4.3 mg | 3.4 mg and 2.0 mg and 12.5 mg and 2.2 mg and 4.2 mg | 14.4 mg and 13.8 mg and 22.9 mg and 11.3 mg and 19.4 mg | 16.5 mg and 12.0 mg and 35.7 mg and 13.2 mg and 14.6 mg | 1.40 mg/gm and 1.22 mg/gm and 2.47 mg/gm and 1.11 mg/gm and 1.50 mg/gm
CCCCCCC(=O)O[C@H]1CC[C@H]2[C@@H]3CCC4=CC(=O)CC[C@]4(C)[C@H]3CC[C@]12C [T, testosterone enanthane] | 12.6 | 14.0 | 1.21 | 0.27 | 3.2 | 2.8 | 0.57 mg/gm and 0.25 mg/gm and 0.16 mg/gm and 0.09 mg/gm and 0.31 mg/gm | 8.2 mg and 4.3 mg and 0.8 mg and 0.9 mg and 1.9 mg | 4.3 mg and 1.1 mg (2×) and 2.5 mg and 4.8 mg | 21.3 mg and 15.6 mg and 3.7 mg and 8.4 mg and 13.9 mg | 16.2 mg and 11.7 mg and 13.5 mg and 8.4 mg and 20.1 mg | 1.72 mg/gm and 1.26 mg/gm and 0.81 mg/gm and 0.72 mg/gm and 1.55 mg/gm |  |  |  |  |  |  |  | 
